According to ChEMBL document CHEMBL1127762, “Five-membered heterocyclic amines as potential anti-rheumatoid arthritis agents” (Bioorg Med Chem Lett, 1994):

Key:
[1] = Partition coefficient (logP); settings: octanol/water
Rattus norvegicus [2] = test: Percent reduction in paw volume ([…], days 9-18) by 33 mg/kg p.o. in rats.; type: functional; settings: route oral
Rattus norvegicus [3] = test: Improvement in joint mobility at 33 mg/kg p.o. in rat model of arthritis.; type: functional; settings: route oral
Rattus norvegicus [4] = test: Percent reduction in paw volume (right primary lesion, days 0-8) by 33 mg/kg p.o. in rats.; type: functional; settings: route oral
Rattus norvegicus [5] = test: Percent reduction in paw volume (right primary lesion, days 9-18) by 33 mg/kg p.o. in rats.; type: functional; settings: route oral
Rattus norvegicus [6] = test: Antiarthritic activity by measuring percent reduction in paw volume in Sprague Dawley rat by peroral administration of 33 mg/kg; type: functional; settings: route oral
Rattus norvegicus [7] = test: Antiarthritic activity by measuring % reduction in paw volume in Sprague Dawley rat, peroral administration of 10 mg/kg, volume change in the uninjected paw([…]) measured from day 9 to day 18; type: functional; settings: route oral

For `Nc1ncns1`, the logP [1] was 0.66, the Reduction (Rattus norvegicus [2]) was 106% and the Reduction (Rattus norvegicus [3]) was 69%. It also gave a Reduction (Rattus norvegicus [4]) of 45% and a Reduction (Rattus norvegicus [5]) of 59%.

With `Nc1nc(-c2cnccn2)ns1` the logP [1] was 0.52, the Reduction (Rattus norvegicus [2]) was 24% and the Reduction (Rattus norvegicus [3]) was 6%. For the same compound, the Reduction (Rattus norvegicus [4]) was 10% and the Reduction (Rattus norvegicus [5]) was 17%.

`Nc1n[nH]c(-c2ccccn2)n1` showed a Reduction (Rattus norvegicus [2]) of 60%, a Reduction (Rattus norvegicus [3]) of 21% and a Reduction (Rattus norvegicus [4]) of 3%. It also gave a Reduction (Rattus norvegicus [5]) of 32%.

Compound `CC(=O)Nc1nc(-c2cc(C(C)(C)C)c(O)c(C(C)(C)C)c2)no1` has a Reduction (Rattus norvegicus [2]) of 79%, a Reduction (Rattus norvegicus [3]) of 75% and a Reduction (Rattus norvegicus [4]) of 80%. The Reduction (Rattus norvegicus [5]) was 66%.

In the case of `Nc1nc(-c2ccc(Cl)cc2)ns1`, the logP [1] is reported as 2.83, the Reduction (Rattus norvegicus [2]) is reported as 46% and the Reduction (Rattus norvegicus [3]) is reported as 18%. For the same compound, the Reduction (Rattus norvegicus [4]) was 20% and the Reduction (Rattus norvegicus [5]) was 50%.

In the case of `Nc1nc(-c2ncccn2)ns1`, the logP [1] is reported as 0.08, the Reduction (Rattus norvegicus [2]) is reported as 5% and the Reduction (Rattus norvegicus [3]) is reported as 30%. The Reduction (Rattus norvegicus [4]) was 28% and the Reduction (Rattus norvegicus [5]) was 31%.

`Nc1nc(-c2ccccn2)ns1` gave a logP [1] of 1.05, a Reduction (Rattus norvegicus [2]) of 65% and a Reduction (Rattus norvegicus [3]) of 70%. The Reduction (Rattus norvegicus [4]) was 8% and the Reduction (Rattus norvegicus [5]) was 44%.

In the case of `Nc1nc(Cc2ccccc2)ns1`, the logP [1] is reported as 2.05, the Reduction (Rattus norvegicus [2]) is reported as 77% and the Reduction (Rattus norvegicus [3]) is reported as 36%. For the same compound, the Reduction (Rattus norvegicus [4]) was 28% and the Reduction (Rattus norvegicus [5]) was 42%.

`Nc1nc(-c2cccnc2)ns1` gave a logP [1] of 1.58, a Reduction (Rattus norvegicus [2]) of 49% and a Reduction (Rattus norvegicus [3]) of 24%. For the same compound, the Reduction (Rattus norvegicus [4]) was 15% and the Reduction (Rattus norvegicus [5]) was 22%.

`CC(C)(C)c1cc(-c2noc(N)n2)cc(C(C)(C)C)c1O` showed a logP [1] of 3.72, a Reduction (Rattus norvegicus [2]) of 103% and a Reduction (Rattus norvegicus [3]) of 89%. It also gave a Reduction (Rattus norvegicus [4]) of 47% and a Reduction (Rattus norvegicus [5]) of 56%.

In the case of `O=C(Nc1nc(-c2ccccc2)ns1)OCC(Cl)(Cl)Cl`, the Reduction (Rattus norvegicus [2]) is reported as 68%, the Reduction (Rattus norvegicus [3]) is reported as 42% and the Reduction (Rattus norvegicus [4]) is reported as 50%. It also gave a Reduction (Rattus norvegicus [5]) of 45%.

Work on `Nc1nc(-c2ccccn2)no1` yielded a Reduction (Rattus norvegicus [2]) of 66%, a Reduction (Rattus norvegicus [3]) of 8% and a Reduction (Rattus norvegicus [4]) of 24%. For the same compound, the Reduction (Rattus norvegicus [5]) was 22%.

For `CC(C)(C)c1nsc(N)n1`, the logP [1] was 1.78, the Reduction (Rattus norvegicus [2]) was 45% and the Reduction (Rattus norvegicus [3]) was 28%. The Reduction (Rattus norvegicus [4]) was 16% and the Reduction (Rattus norvegicus [5]) was 30%.

`Nc1nc(-c2ccncc2)ns1` showed a logP [1] of 1.72, a Reduction (Rattus norvegicus [2]) of 74% and a Reduction (Rattus norvegicus [3]) of 33%. It also gave a Reduction (Rattus norvegicus [4]) of 11% and a Reduction (Rattus norvegicus [5]) of 20%.

Compound `Nc1nc(-c2cccs2)ns1` has a logP [1] of 1.77, a Reduction (Rattus norvegicus [2]) of 43% and a Reduction (Rattus norvegicus [3]) of 7%. For the same compound, the Reduction (Rattus norvegicus [4]) was 6% and the Reduction (Rattus norvegicus [5]) was 25%.

For `CCCc1nsc(N)n1`, the logP [1] was 1.12, the Reduction (Rattus norvegicus [2]) was 54% and the Reduction (Rattus norvegicus [3]) was 47%. It also gave a Reduction (Rattus norvegicus [4]) of 13% and a Reduction (Rattus norvegicus [5]) of 40%.

`Nc1nc(-c2ccccc2)ns1` gave a Reduction (Rattus norvegicus [2]) of 84%, a Reduction (Rattus norvegicus [3]) of 13% and a Reduction (Rattus norvegicus [4]) of 22%. The Reduction (Rattus norvegicus [5]) was 51%.

Compound `CC(C)(C)c1ccc(-c2nsc(N)n2)cc1` has a logP [1] of 1.78, a Reduction (Rattus norvegicus [2]) of 6% and a Reduction (Rattus norvegicus [6]) of 2%. For the same compound, the Reduction (Rattus norvegicus [3]) was 18% and the Reduction (Rattus norvegicus [4]) was 27%.

Work on `Cc1nsc(N)n1` yielded a logP [1] of 0, a Reduction (Rattus norvegicus [2]) of 66% and a Reduction (Rattus norvegicus [3]) of 84%. The Reduction (Rattus norvegicus [4]) was 38% and the Reduction (Rattus norvegicus [5]) was 50%.

`Nc1nc[nH]n1` [AMITROLE] gave a Reduction (Rattus norvegicus [2]) of 57%, a Reduction (Rattus norvegicus [3]) of 26% and a Reduction (Rattus norvegicus [4]) of 27. The Reduction (Rattus norvegicus [5]) was 46%.

`C/C=C/C[C@@H](C)[C@@H](O)[C@H]1C(=O)N[C@@H](CC)C(=O)N(C)CC(=O)N(C)[C@@H](CC(C)C)C(=O)N[C@@H](C(C)C)C(=O)N(C)[C@@H](CC(C)C)C(=O)N[C@@H](C)C(=O)N[C@H](C)C(=O)N(C)[C@@H](CC(C)C)C(=O)N(C)[C@@H](CC(C)C)C(=O)N(C)[C@@H](C(C)C)C(=O)N1C` [CYCLOSPORINE] gave a Reduction (Rattus norvegicus [7]) of 77% and a Reduction (Rattus norvegicus [4]) of 51%.
